Test results taken from patent US4118561A, “7-(Substituted)-7H-pyrrolo[3,2-f]quinazoline-1,3-diamines” (priority 1977, dated 1978).
In brackets after ≈: the same amount, converted by molar mass. Where two headings read alike, the source gives them in different places.

What was measured:
[1] = system: P. vulgaris 6896; test: In vitro antibacterial activity (MIC), P. vulgaris 6896; conditions: Proteus vulgaris, 6896, 18 h
[2] = system: E. coli 9637; test: In vitro antibacterial activity (MIC), E. coli 9637; conditions: Escherichia coli, 9637, 18 h
[3] = system: N. catarrhalis 8193; test: In vitro antibacterial activity (MIC), N. catarrhalis 8193; conditions: 18 h
[4] = system: K. pneumoniae 10031; test: In vitro antibacterial activity (MIC), K. pneumoniae 10031; conditions: Klebsiella pneumoniae, 10031, 18 h
[5] = system: Plasmodium berghei KBG 173; test: Antimalarial blood schizonticidal test in mice; format: in vivo, Plasmodium berghei (infected ICR/HA Swiss mice); set-up: ΔMST (increase in mean survival time): unit: days; conditions: s.c.; for ED100 / minimal effective dose: Plasmodium berghei, sc, single dose; for ED100: read-out: Lowest Dose Curing All Mice; for minimal effective dose: read-out: Min. Curing Dose; for Cure/Treat at Min. Curing Dose: at the Min. Curing Dose
From the text: (§1) In addition, the invention provides compounds which have antimalarial activity in vivo as evidenced by a standard blood schizonticidal test in mice infected with Plasmodium berghei KBG 173.
(§2) Utilizing young ICR/HA Swiss mice and a standard inoculum of Plasmodium berghei KBG 173, it is possible to produce a uniform disease fatal to 100% of untreated animals within 6 to 8 days with a mean survival time of 6.2 days. Test animals weigh from 18 to 22 grams but weight variations in any given experimental or control group are confined to 2-3 grams. All animals in any given test are approximately of the same age. Animals on test are housed in metal-topped plastic cages, given a standard laboratory diet and water ad libitum.
(§3) Test animals receive an intraperitoneal injection of 0.5 ml. of 1:100 dilution of heparinized heart's blood with a minimum of 90% parasitized cells (4 × 10^7 cells), drawn from donor mice infected one week earlier with Plasmodium berghei. The donor strain is maintained by weekly passages in separate groups of mice inoculated with a 0.5 ml. of 1:500 dilution of heparinized heart's blood.
(§4) Test compounds are administered after dissolution or suspension in peanut oil. A single dose is given subcutaneously 72 hours after the mice are infected with Plasmodium berghei. At this time a 10-15 percent parasitemia has developed; the disease is well established but has not produced sufficient debility to alter the response of the host to toxic effects of the drug on test. Since treatment is withheld for three days to permit the infection to become well established and death occurs in untreated controls within 6-8 days, it is felt that this system presents a candidate compound with the maximum challenge. In order to check factors such as changes in the infectivity of Plasmodium berghei or in the susceptibility of the host or to detect technical errors, a group of infected animals treated with pyrimethamine at dose levels producing definite increases in survival time is included in a positive control in every experiment.
(§5) In each experiment test compounds are administered in graded dosages. […] However, if an active drug is toxic for the host, its toxicity may become a limiting factor; continued increases in dose levels also increase the toxic effects and may result in the diminution of survival times. Deaths prior to the sixth day, when untreated controls begin to die, are regarded as nonparasitic and become the basis for toxicity evaluations. […] In calculating mean survival time, toxic deaths and 60-day survivors are not included.
(§6) Compounds are considered active which produce a cure in at least one test animal or which produce significant increases in mean survival times of the treated animals as compared with the mean survival times of untreated controls, provided that no drug related deaths (toxicity) are noted at the active dose.

[6] = Antimalarial blood schizonticidal test in mice; format: in vivo, Plasmodium berghei (infected ICR/HA Swiss mice); set-up: ΔMST (increase in mean survival time): unit: days; conditions: mouse, in vivo, sc, single dose, read-out: Highest Non-Lethal Dose
From the text: as §1, §2, §3, §4, §5, §6

[7] = system: S. aureus Smith; test: In vitro antibacterial activity (MIC), S. aureus Smith; conditions: Staphylococcus aureus, 18 h
[8] = system: S. aureus 53-180; test: In vitro antibacterial activity (MIC), S. aureus 53-180; conditions: Staphylococcus aureus, 53180, 18 h
[9] = system: S. paratyphi 11737; test: In vitro antibacterial activity (MIC), S. paratyphi 11737; format: cell-based; conditions: Salmonella enterica, 18 h
[10] = infected mice, highest dose with no deaths for any reason
[11] = 336 h, alive on day 14 considered cured, no 60-day data

Row | Structure (SMILES) | MIC [1] | MIC [2] | MIC [3] | MIC [4] | ED100 ([5]; 1440 h, 60-day survivors) | minimal effective dose ([5]; 1440 h, 60-day survivors) | Cure/Treat at Min. Curing Dose ([5]; 60-day survivors) | MTD [6, 10] | MIC [7] | MIC [8] | MIC [9] | also measured
1 | Cc1cc(C)c(Cn2ccc3c4c(N)nc(N)nc4ccc32)c(C)c1 [Example 27] | > 250 µg/mL | > 250 µg/mL | 0.244 µg/mL (≈ 0.736 µM) | 31.3 µg/mL (≈ 94.4 µM) | 40 mg/kg | 5 mg/kg | 3/5 | 80 mg/kg | 250 µg/mL (≈ 754 µM) | 250 µg/mL (≈ 754 µM) | > 250 µg/mL | ΔMST (increase in mean survival time) ([5]; dose 2.5 mg. per kg.): 7.3
2 | Nc1nc(N)c2c(ccc3c2ccn3-c2ccc([N+](=O)[O-])cc2)n1 [Example 77] | 250 µg/mL (≈ 780 µM) | 7.81 µg/mL (≈ 24.4 µM) | 0.031 µg/mL (≈ 0.0968 µM) | 0.976 µg/mL (≈ 3.05 µM) | 640 mg/kg | 160 mg/kg | 5/5 | 640 mg/kg | 3.9 µg/mL (≈ 12.2 µM) | 3.9 µg/mL (≈ 12.2 µM) | 62.5 µg/mL (≈ 195 µM) | ΔMST (increase in mean survival time) ([5]; dose 40 mg. per kg.): 28.3
3 | CCCCCCCn1ccc2c3c(N)nc(N)nc3ccc21 [Example 53] | 250 µg/mL (≈ 841 µM) | 31.3 µg/mL (≈ 105 µM) | 0.488 µg/mL (≈ 1.64 µM) | 3.9 µg/mL (≈ 13.1 µM) | 640 mg/kg | 320 mg/kg | 2/5 |  | 31.3 µg/mL (≈ 105 µM) | 15.6 µg/mL (≈ 52.5 µM) | 62.5 µg/mL (≈ 210 µM) | ΔMST (increase in mean survival time) ([5]; dose 160 mg. per kg.): 9.5; MTD ([6]; this is the highest dose tested): 640 mg/kg
4 | COc1ccccc1Cn1ccc2c3c(N)nc(N)nc3ccc21 [Example 32] | 3.9 µg/mL (≈ 12.2 µM) | 1.95 µg/mL (≈ 6.11 µM) | 0.061 µg/mL (≈ 0.191 µM) | 0.244 µg/mL (≈ 0.764 µM) | 40 mg/kg | 10 mg/kg | 3/5 | 160 mg/kg | 0.976 µg/mL (≈ 3.06 µM) | 0.976 µg/mL (≈ 3.06 µM) | 7.81 µg/mL (≈ 24.5 µM) | ΔMST (increase in mean survival time) ([5]; dose 10 mg. per kg.): 10.5
5 | CC(=O)c1ccccc1-n1ccc2c3c(N)nc(N)nc3ccc21 [Example 70] | 0.976 µg/mL (≈ 3.08 µM) | 0.244 µg/mL (≈ 0.769 µM) | 0.0076 µg/mL (≈ 0.0239 µM) | 0.0152 µg/mL (≈ 0.0479 µM) |  | 40 mg/kg | 1/5 |  | 0.061 µg/mL (≈ 0.192 µM) | 0.031 µg/mL (≈ 0.0977 µM) | 0.488 µg/mL (≈ 1.54 µM) | ΔMST (increase in mean survival time) ([5]; dose 40 mg. per kg.): 9.2
6 | Nc1nc(N)c2c(ccc3c2ccn3-c2ccccc2[N+](=O)[O-])n1 [Example 76] | 3.9 µg/mL (≈ 12.2 µM) | 0.976 µg/mL (≈ 3.05 µM) | 0.031 µg/mL (≈ 0.0968 µM) | 0.244 µg/mL (≈ 0.762 µM) |  | 40 mg/kg | 4/5 |  | 0.244 µg/mL (≈ 0.762 µM) | 0.244 µg/mL (≈ 0.762 µM) | 1.95 µg/mL (≈ 6.09 µM) | 
7 | N#Cc1ccccc1Cn1ccc2c3c(N)nc(N)nc3ccc21 [Example 14] | 1.95 µg/mL (≈ 6.2 µM) | 0.244 µg/mL (≈ 0.776 µM) | 0.061 µg/mL (≈ 0.194 µM) | 0.122 µg/mL (≈ 0.388 µM) | 40 mg/kg | 10 mg/kg | 1/5 | 160 mg/kg | 0.244 µg/mL (≈ 0.776 µM) | 0.244 µg/mL (≈ 0.776 µM) | 0.488 µg/mL (≈ 1.55 µM) | ΔMST (increase in mean survival time) ([5]; dose 10 mg. per kg.): 8.9
8 | CSc1ccc(Cn2ccc3c4c(N)nc(N)nc4ccc32)cc1 [Example 31] | 31.3 µg/mL (≈ 93.3 µM) | 0.488 µg/mL (≈ 1.45 µM) | 0.0152 µg/mL (≈ 0.0453 µM) | 0.122 µg/mL (≈ 0.364 µM) |  |  |  |  | 0.976 µg/mL (≈ 2.91 µM) | 0.488 µg/mL (≈ 1.45 µM) | 3.9 µg/mL (≈ 11.6 µM) | ED100 [5, 11]: 20 mg/kg; minimal effective dose [5, 11]: 2.5 mg/kg; Cure/Treat at Min. Curing Dose ([5]; alive on day 14 considered cured): 4/5; ΔMST (increase in mean survival time) ([5]; dose 1.25 mg. per kg., alive on day 14 considered cured, no 60-day data): 6.2; MTD ([6]; alive on day 14 considered cured, no 60-day data): 40 mg/kg
9 | Cc1cccc(Cn2ccc3c4c(N)nc(N)nc4ccc32)c1 [Example 20] | 1.95 µg/mL (≈ 6.43 µM) | 0.488 µg/mL (≈ 1.61 µM) | 0.031 µg/mL (≈ 0.102 µM) | 1.95 µg/mL (≈ 6.43 µM) | 20 mg/kg | 5 mg/kg | 4/5 | 320 mg/kg | 0.976 µg/mL (≈ 3.22 µM) | 0.488 µg/mL (≈ 1.61 µM) | 1.95 µg/mL (≈ 6.43 µM) | ΔMST (increase in mean survival time) ([5]; dose 5 mg. per kg.): 6.9
